This test has as its target T1, androgen receptor (AR) splicing variant AR-v7 (Homo sapiens, UniProt P10275).
T1 construct: The degradation activity of compounds on AR-v7 in 22RV1 cells; host or cells: 22RV1 cells
T1 sequence (P10275 1-644 isoform P10275-3): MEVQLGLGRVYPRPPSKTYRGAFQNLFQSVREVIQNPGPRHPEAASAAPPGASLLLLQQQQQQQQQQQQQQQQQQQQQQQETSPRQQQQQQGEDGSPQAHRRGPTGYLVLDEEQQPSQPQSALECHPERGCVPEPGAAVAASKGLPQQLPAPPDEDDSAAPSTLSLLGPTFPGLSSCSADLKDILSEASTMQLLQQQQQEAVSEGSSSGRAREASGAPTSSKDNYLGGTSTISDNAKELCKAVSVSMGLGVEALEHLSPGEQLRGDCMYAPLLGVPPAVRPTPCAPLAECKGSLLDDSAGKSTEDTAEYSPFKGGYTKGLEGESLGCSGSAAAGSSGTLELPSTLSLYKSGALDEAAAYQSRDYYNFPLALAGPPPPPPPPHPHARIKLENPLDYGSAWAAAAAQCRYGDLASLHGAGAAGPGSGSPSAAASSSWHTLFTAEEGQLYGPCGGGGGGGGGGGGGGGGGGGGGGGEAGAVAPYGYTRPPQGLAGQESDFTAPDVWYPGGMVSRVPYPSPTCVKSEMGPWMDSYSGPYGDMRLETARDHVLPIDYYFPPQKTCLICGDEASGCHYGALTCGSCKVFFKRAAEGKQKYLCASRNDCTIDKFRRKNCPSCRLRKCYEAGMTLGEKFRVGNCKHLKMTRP
The experiment in a line: Degradation activity on androgen receptor splicing variant AR-v7 in 22RV1 cells (ELISA). Type of test: cell-based. Particulars: AR-v7 degradation in 22RV1 cells, 48 h. On the technique in general: ELISA stands for enzyme-linked immunosorbent assay.

Each structure is given as a SMILES string. Some results are limits rather than exact numbers.

The DC50 is the concentration giving 50% degradation. The low end stands for a more potent degrader, the high end for a less potent degrader. As to `CCOC(=O)c1ncc(Oc2ccc(C(C)(C)c3ccc(O[C@H]4C[C@H](Nc5ccc6c(c5)C(=O)N(C5CCC(=O)NC5=O)C6=O)C4)cc3)cc2)cn1` (some centres unmarked) [Example 381, ethyl 5-(4-(2-(4-((1r,3r)-3-((2-(2,6-dioxopiperidin-3-yl)-1,3-dioxoisoindolin-5-yl)amino)cyclobutyloxy)phenyl)isopropan-2-yl)phenoxy)pyrimidin-2-carboxylate], for the setting “class symbols”, the DC50 lay within 11 to 100 nM.
`CN1CCC2(CCN(c3nccc(COc4ccc(C(C)(C)c5ccc(OCCCCCCCCOCCCCNc6ccc7c(c6)C(=O)N(C6CCC(=O)NC6=O)C7=O)cc5)cc4)n3)C2)C1` (centres unmarked) [Example 384] yielded a DC50 (numeric values) of more than 5000 nM.
`CC(=O)c1ncc(COc2ccc(C(C)(C)c3ccc(OCCCCCCCCOCCCCNc4ccc5c(c4)C(=O)N(C4CCC(=O)NC4=O)C5=O)cc3)cc2)cn1` (centres unmarked) [Example 385, 5-((4-((8-(4-(2-(4-((2-acetylpyrimidin-5-yl)methoxy)phenyl)propan-2-yl)phenoxy)octyl)oxy)butyl)amino)-2-(2,6-dioxopiperidin-3-yl)isoindol-1,3-dione] returned a DC50 (numeric values) of more than 2000 nM.
For `CC(=O)c1nccc(COc2ccc(C(C)(C)c3ccc(OCCCCCCCCCNc4cccc5c4C(=O)N(C4CCC(=O)NC4=O)C5=O)cc3)cc2)n1` (centres unmarked) [Example 386, 4-((9-(4-(2-(4-((2-acetylpyrimidin-4-yl)methoxy)phenyl)propan-2-yl)phenoxy)nonyl)amino)-2-(2,6-dioxopyridin-3-yl)isoindol-1,3-dione], the DC50 (class symbols) was in the range of 1000 to 5000 nM.
For the setting “class symbols”, `CC(C)(c1ccc(OCCCNc2ccc3c(c2)C(=O)N(C2CCC(=O)NC2=O)C3=O)cc1)c1ccc(OCc2ccnc(-n3cccn3)n2)cc1` (centres unmarked) [Example 387, 5-((3-(4-(2-(4-((2-(1H-pyrazol-1-yl)pyrimidin-4-yl)methoxy)phenyl)propan-2-yl)phenoxy)propyl)amino)-2-(2,6-dioxopiperidin-3-yl)isoindol-1,3-dione] had a DC50 of 11 to 100 nM.
`CC(C)(c1ccc(OCCCNc2ccc3c(c2)C(=O)N(C2CCC(=O)NC2=O)C3=O)cc1)c1ccc(OCc2nc(C(N)=O)co2)cc1` (centres unmarked) [Example 388] showed a DC50 (class symbols) of 11 to 100 nM.
Regarding `CC(C)(c1ccc(OCc2ccnc(N3CCOCC3)n2)cc1)c1ccc(OC2CC(Nc3ccc4c(c3)C(=O)N(C3CCC(=O)NC3=O)C4=O)C2)cc1` (centres unmarked) [Example 394], the 50% degradation concentration (DC50) (class symbols) is 11 to 100 nM.
Turning to `CN[C@@H]1CCCN(c2nccc(COc3ccc(C(C)(C)c4ccc(O[C@H]5C[C@@H](Nc6ccc7c(c6)C(=O)N(C6CCC(=O)NC6=O)C7=O)C5)cc4)cc3)n2)C1` (some centres unmarked) [Example 401], the 50% degradation concentration (DC50) (class symbols) lay in the range of 11 to 100 nM.
Consider `CN(C)[C@@H]1CCCN(c2nccc(COc3ccc(C(C)(C)c4ccc(O[C@H]5C[C@@H](Nc6ccc7c(c6)C(=O)N(C6CCC(=O)NC6=O)C7=O)C5)cc4)cc3)n2)C1` (some centres unmarked) [Example 402], for which the half-maximal degradation concentration (DC50) (class symbols) lay within 11 to 100 nM.
Still for that read-out and setting: then `CN[C@H]1CCCN(c2nccc(COc3ccc(C(C)(C)c4ccc(O[C@H]5C[C@@H](Nc6ccc7c(c6)C(=O)N(C6CCC(=O)NC6=O)C7=O)C5)cc4)cc3)n2)C1` (some centres unmarked) [Example 403], with 11 to 100 nM.
Regarding `CN(C)C1CCCN(c2nccc(COc3ccc(C(C)(C)c4ccc(O[C@H]5C[C@@H](Nc6ccc7c(c6)C(=O)N(C6CCC(=O)NC6=O)C7=O)C5)cc4)cc3)n2)C1` (some centres unmarked) [Example 404], the 50% degradation concentration (DC50) (class symbols) was in the range of 11 to 100 nM.
As to `CN1CC(Oc2nccc(COc3ccc(C(C)(C)c4ccc(O[C@H]5C[C@@H](Nc6ccc7c(c6)C(=O)N(C6CCC(=O)NC6=O)C7=O)C5)cc4)cc3)n2)C1` (some centres unmarked) [Example 407], the DC50 (class symbols) lay in the range of 11 to 100 nM.
The same measure, in the same setting: then `C[C@@H]1CN(c2nccc(COc3ccc(C(C)(C)c4ccc(O[C@H]5C[C@@H](Nc6ccc7c(c6)C(=O)N(C6CCC(=O)NC6=O)C7=O)C5)cc4)cc3)n2)[C@H](C)CN1` (some centres unmarked) [Example 408], with 11 to 100 nM.
Compound `C[C@@H]1CN(c2nccc(COc3ccc(C(C)(C)c4ccc(O[C@H]5C[C@@H](Nc6ccc7c(c6)C(=O)N(C6CCC(=O)NC6=O)C7=O)C5)cc4)cc3)n2)[C@H](C)CN1C` (some centres unmarked) [Example 409] gave a DC50 (class symbols) of 11 to 100 nM.

The record behind these values is patent US20250051347A1, “BIFUNCTIONAL CHIMERIC HETEROCYCLIC COMPOUND AND USE THEREOF AS ANDROGEN RECEPTOR DEGRADER” (Hinova Pharmaceuticals, Inc., priority 2021, published 2025).
